The values below are quoted from earlier work in patent publication US20170266323A1, “NEAR-INFRARED-II FLUORESCENT AGENTS, METHODS OF MAKING NEAR-INFRARED-II FLUORESCENT AGENTS, AND METHODS OF USING WATER-SOLUBLE NIR-II FLUORESCENT AGENTS” (The Board of Trustees of the Leland Stanford Junior …, priority 2013, published 2017).

For data set [1] the following is noted: in DCM, rhodamine B in ethanol as reference, reported by one study.

Consider `ClC1=C(C=Cc2cc(-c3ccccc3)[s+]c(-c3ccccc3)c2)CCCC1=CC=C1C=C(c2ccccc2)SC(c2ccccc2)=C1.F[B-](F)(F)F` [IR-1061, 4-[2-[2-Chloro-3-[(2,6-diphenyl-4H-thiopyran-4-ylidene)ethylidene]-1-cyclohexen-1-yl]ethenyl]-2,6-diphenylthiopyrylium tetrafluoroborate], for which the solubility in water entry is “water insoluble”. Besides, the fluorescence quantum efficiency in data set [1] is listed as approximately 1.7±0.5%.
